Assay results taken from US8609692B2, “TRPV1 antagonists” (AbbVie Inc., priority 2008, dated 2013).

Columns and labels:
[1] = target: T1, human TRPV1 receptor (hTRPV1) (Homo sapiens, UniProt Q8NER1); assay: Capsaicin activation assay (Ca2+ influx, FLIPR); assay type: cell-based; conditions: 0.05 μM capsaicin, 1321N1 cells expressing hTRPV1
T1 construct: expressed in transfected cells
Description: Dulbecco's modified Eagle medium (D-MEM) (with 4.5 mg/mL glucose) and fetal bovine serum were obtained from Hyclone Laboratories, Inc. (Logan, Utah). Dulbecco's phosphate-buffered saline (D-PBS) (with 1 mg/mL glucose and 3.6 mg/l Na pyruvate, without phenol red), L-glutamine, hygromycin B, and Lipofectamine® were obtained from Life Technologies (Grand Island, N.Y.). G418 sulfate was obtained from Calbiochem-Novabiochem Corp. (San Diego, Calif.). Capsaicin (8-methyl-N-vanillyl-6-nonenamide) was obtained from Sigma-Aldrich, Co. (St. Louis, Mo.). Fluo-4 AM (N-[4-[6-[(acetyloxy)methoxy]-2,7-difluoro-3-oxo-3H-xanthen-9-yl]-2-[2-[2-[bis[2-[(acetyloxy)methoxy]-2-oxyethyl]amino]-5-methyl-phenoxy]ethoxy]phenyl]-N-[2-[(acetyloxy)methoxy]-2-oxyethyl]-glycine, (acetyloxy)methyl ester) was purchased from Molecular Probes (Eugene, Oreg.).
The cDNAs for the human TRPV1 receptor (hTRPV1) were isolated by reverse transcriptase-polymerase chain reaction (RT-PCR) from human small intestine poly A+RNA supplied by Clontech (Palo Alto, Calif.) using primers designed surrounding the initiation and termination codons identical to the published sequences (Hayes et al. Pain 2000, 88, 205-215). The resulting cDNA PCR products were subcloned into pCIneo mammalian expression vector (Promega) and fully sequenced using fluorescent dye-terminator reagents (Prism, Perkin-Elmer Applied Biosystems Division) and a Perkin-Elmer Applied Biosystems Model 373 DNA sequencer or Model 310 genetic analyzer. Expression plasmids encoding the hTRPV1 cDNA were transfected individually into 1321N1 human astrocytoma cells using Lipofectamine®. Forty-eight hours after transfection, the neomycin-resistant cells were selected with growth medium containing 800 μg/mL Geneticin (Gibco BRL). Surviving individual colonies were isolated and screened for TRPV1 receptor activity. Cells expressing recombinant homomeric TRPV1 receptors were maintained at 37° C. in D-MEM containing 4 mM L-glutamine, 300 μg/mL G418 (Cal-biochem) and 10% fetal bovine serum under a humidified 5% CO2 atmosphere.
The functional activity of compounds at the TRPV1 receptor was determined with a Ca^2+ influx assay and measurement of intracellular Ca^2+ levels ([Ca^2+]i). All compounds were tested over an 11-point half-log concentration range. Compound solutions were prepared in D-PBS (4× final concentration), and diluted serially across 96-well v-bottom tissue culture plates using a Biomek 2000 robotic automation workstation (Beckman-Coulter, Inc., Fullerton, Calif.). A 0.2 μM solution of the TRPV1 agonist capsaicin was also prepared in D-PBS. The fluorescent Ca^2+ chelating dye Fluo-4 AM was used as an indicator of the relative levels of [Ca^2+]i in a 96-well format using a Fluorescence Imaging Plate Reader (FLIPR) (Molecular Devices, Sunnyvale, Calif.). Cells were grown to confluency in 96-well black-walled tissue culture plates. Then, prior to the assay, the cells were loaded with 100 μL per well of Fluo-4 AM (2 μM, in D-PBS) for 1-2 hours at 23° C. Washing of the cells was performed to remove extracellular Fluo-4 AM (2×1 mL D-PBS per well), and afterward, the cells were placed in the reading chamber of the FLIPR instrument. 50 μL of the compound solutions were added to the cells at the 10 second time mark of the experimental run. Then, after a 3-minute time delay, 50 μL of the capsaicin solution was added at the, 190 second time mark (0.05 μM final concentration)(final volume=200 μL) to challenge the TRPV1 receptor. Time length of the experimental run was 240 seconds. Fluorescence readings were made at 1 to 5 second intervals over the course of the experimental run. The peak increase in relative fluorescence units (minus baseline) was calculated from the 190 second time mark to the end of the experimental run, and expressed as a percentage of the 0.05 μM capsaicin (control) response. […]

[2] = Rat telemetry protocol (core body temperature); assay type: in vivo; conditions: core body temperature of rats at one hour post dosing (100 μmol/kg, p.o.), relative to vehicle
Description: Male, Sprague Dawley rats, 225-250 grams were anesthetized with Sevoflurane (Abbott Laboratories). Rats were placed on a heating pad and covered with a sterile surgical drape. A ventral midline abdominal incision was made and sterile cotton tip applicators were used to gently move internal tissue and expose the abdominal aorta for implantation of the telemetry catheter (Data Sciences International; TL11M2-050-PXT). Blood flow was temporarily stopped to the lower extremities (5-7 min) with Diffenbach clamps to allow the insertion of the telemetry catheter into the abdominal aorta. Once inserted, a sterile cellulose patch was placed over the catheter/aorta and secured using a small amount of tissue adhesive (Vetbond, 3M). Once catheter placement was complete, the clamps were removed and blood flow was restored to the lower extremities. The transmitter was placed in the intraperitoneal cavity. The transmitter suture rib was sewn into the abdominal sutures to secure it in place. The skin was closed using sterile wound clips and the animal removed from Sevoflurane. Buprenex ([…] s.c.; Phoenix) was administered for post-operative analgesia. Animals were maintained on a heating pad until ambulatory, and then individually housed with food and water ad lib. Surgical staples were removed after 7-10 days post-implantation. Rats were allowed a 2-week post-surgical recovery period before treatment with test compound. Oral dosing (p.o.) was at time zero, with rats receiving a single dose of vehicle (10% EtOH, 20% Tween-80, 70% PEG-400) or a 100 μmol/kg dose of compound dissolved in vehicle. Temperature measurements were recorded every 15 minutes for the duration of the study (24 hours).
The term “core body temperature” as used herein, means the temperature measured in the intraperitoneal cavity.

T1 sequence (Q8NER1 whole entry): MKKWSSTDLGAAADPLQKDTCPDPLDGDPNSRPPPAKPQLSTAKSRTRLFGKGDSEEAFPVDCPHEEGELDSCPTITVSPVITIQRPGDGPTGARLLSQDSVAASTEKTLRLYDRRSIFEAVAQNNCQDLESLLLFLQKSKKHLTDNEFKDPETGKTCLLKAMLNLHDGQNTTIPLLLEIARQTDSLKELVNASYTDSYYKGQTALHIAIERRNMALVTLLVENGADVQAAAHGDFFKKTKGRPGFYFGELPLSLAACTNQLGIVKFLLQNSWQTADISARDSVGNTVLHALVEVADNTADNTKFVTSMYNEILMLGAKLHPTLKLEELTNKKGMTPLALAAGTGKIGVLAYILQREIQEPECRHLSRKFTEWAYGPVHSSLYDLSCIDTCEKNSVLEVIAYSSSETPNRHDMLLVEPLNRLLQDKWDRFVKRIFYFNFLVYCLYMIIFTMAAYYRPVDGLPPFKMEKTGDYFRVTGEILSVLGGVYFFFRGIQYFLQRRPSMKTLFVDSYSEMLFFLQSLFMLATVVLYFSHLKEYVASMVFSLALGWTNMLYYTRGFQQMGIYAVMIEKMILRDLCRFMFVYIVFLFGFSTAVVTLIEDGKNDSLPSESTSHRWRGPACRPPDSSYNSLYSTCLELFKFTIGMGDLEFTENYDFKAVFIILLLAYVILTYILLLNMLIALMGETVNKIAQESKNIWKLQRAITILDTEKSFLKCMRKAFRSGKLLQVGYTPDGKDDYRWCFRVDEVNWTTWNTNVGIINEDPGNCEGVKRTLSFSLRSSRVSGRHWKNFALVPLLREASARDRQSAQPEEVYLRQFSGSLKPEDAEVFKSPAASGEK

Compound | IC50 [1] | Δ Temp [2]
Cn1ncc2c(NC(=O)N[C@@H]3CC(C)(C)Oc4ccc(F)cc43)cccc21 [Example 1, N-[(4R)-6-fluoro-2,2-dimethyl-3,4-dihydro-2H-chromen-4-yl]-N′-(1-methyl-1H-indazol-4-yl)urea] | 0.229 µM | 0.5 °C
CC1(C)C[C@@H](NC(=O)Nc2cccc3c2C[C@@H](O)CC3)c2cc(F)ccc2O1 [Example 3, N-[(4R)-6-fluoro-2,2-dimethyl-3,4-dihydro-2H-chromen-4-yl]-N′-[(7S)-7-hydroxy-5,6,7,8-tetrahydronaphthalen-1-yl]urea] | 0.032 µM | 0.6 °C
CC1(C)C[C@@H](NC(=O)Nc2cccc3c2C[C@H](O)CC3)c2cc(F)ccc2O1 [Example 4, N-[(4R)-6-fluoro-2,2-dimethyl-3,4-dihydro-2H-chromen-4-yl]-N′-[(7R)-7-hydroxy-5,6,7,8-tetrahydronaphthalen-1-yl]urea] | 0.03 µM | 0.6 °C
O=C(Nc1cccc2c1C[C@@H](O)CC2)N[C@@H]1CC2(CCC2)Oc2ccc(F)cc21 [Example 9, N-[(4R)-6-fluoro-3,3′,4,4′-tetrahydro-2′H-spiro[chromene-2,1′-cyclobutan]-4-yl]-N′-[(7S)-7-hydroxy-5,6,7,8-tetrahydronaphthalen-1-yl]urea] | 0.028 µM | 0.9 °C
CC1(C)C[C@@H](NC(=O)Nc2cccc3c2C[C@H](O)CC3)c2cc(F)cc(F)c2O1 [Example 18, N-[(4R)-6,8-difluoro-2,2-dimethyl-3,4-dihydro-2H-chromen-4-yl]-N′-[(7R)-7-hydroxy-5,6,7,8-tetrahydronaphthalen-1-yl]urea] | 0.029 µM | 1.4 °C
Cn1ncc2c(NC(=O)N[C@@H]3CC(C)(C)Oc4cc(F)ccc43)cccc21 [Example 24, N-[(4R)-7-fluoro-2,2-dimethyl-3,4-dihydro-2H-chromen-4-yl]-N′-(1-methyl-1H-indazol-4-yl)urea] | 0.052 µM | 1.3 °C
CC1(C)C[C@@H](NC(=O)Nc2cccc3[nH]ncc23)c2ccc(F)cc2O1 [Example 29, N-[(4R)-7-fluoro-2,2-dimethyl-3,4-dihydro-2H-chromen-4-yl]-N′-1H-indazol-4-ylurea] | 0.013 µM | 1.2 °C
Cn1ncc2c(NC(=O)N[C@@H]3CC(C)(C)Oc4cc(C(F)(F)F)ccc43)cccc21 [Example 33, N-[(4R)-2,2-dimethyl-7-(trifluoromethyl)-3,4-dihydro-2H-chromen-4-yl]-N′-(1-methyl-1H-indazol-4-yl)urea] | 0.014 µM | 1.4 °C
CC1(C)C[C@@H](NC(=O)Nc2cccc3c2C[C@H](O)CC3)c2ccccc2O1 [Example 36, N-[(4R)-2,2-dimethyl-3,4-dihydro-2H-chromen-4-yl]-N′-[(7R)-7-hydroxy-5,6,7,8-tetrahydronaphthalen-1-yl]urea] | 0.033 µM | 0.7 °C
Cn1ncc2c(NC(=O)N[C@@H]3CC(C)(C)Oc4cc(OC(F)(F)F)ccc43)cccc21 [Example 39, N-[(4R)-2,2-dimethyl-7-(trifluoromethoxy)-3,4-dihydro-2H-chromen-4-yl]-N′-(1-methyl-1H-indazol-4-yl)urea] | 0.025 µM | 0.7 °C
CC1(C)C[C@@H](NC(=O)Nc2cccc3cnccc23)c2ccc(OC(F)(F)F)cc2O1 [Example 40, N-[(4R)-2,2-dimethyl-7-(trifluoromethoxy)-3,4-dihydro-2H-chromen-4-yl]-N′-isoquinolin-5-ylurea] | 0.005 µM | 0.8 °C
Cn1ncc2c(NC(=O)N[C@@H]3CC(C)(C)Oc4c3cccc4C(F)(F)F)cccc21 [Example 42, N-[(4R)-2,2-dimethyl-8-(trifluoromethyl)-3,4-dihydro-2H-chromen-4-yl]-N′-(1-methyl-1H-indazol-4-yl)urea] | 0.02 µM | 0.6 °C
CC1(C)C[C@@H](NC(=O)Nc2cccc3ccncc23)c2ccc(C(F)(F)F)cc2O1 [Example 43, N-[(4R)-2,2-dimethyl-7-(trifluoromethyl)-3,4-dihydro-2H-chromen-4-yl]-N′-isoquinolin-8-ylurea] | 0.028 µM | 1.5 °C
CC1(C)C[C@@H](NC(=O)Nc2cccc3[nH]ncc23)c2cccc(C(F)(F)F)c2O1 [Example 45, N-[(4R)-2,2-dimethyl-8-(trifluoromethyl)-3,4-dihydro-2H-chromen-4-yl]-N′-1H-indazol-4-ylurea] | 0.011 µM | 0.5 °C
CCC1(CC)C[C@@H](NC(=O)Nc2cccc3c2cnn3C)c2ccc(F)cc2O1 [Example 46, N-[(4R)-2,2-diethyl-7-fluoro-3,4-dihydro-2H-chromen-4-yl]-N′-(1-methyl-1H-indazol-4-yl)urea] | 0.017 µM | 0.7 °C
CCC1(CC)C[C@@H](NC(=O)Nc2cccc3c2cnn3C)c2ccc(C(F)(F)F)cc2O1 [Example 49, N-[(4R)-2,2-diethyl-7-(trifluoromethyl)-3,4-dihydro-2H-chromen-4-yl]-N′-(1-methyl-1H-indazol-4-yl)urea] | 0.071 µM | 1.3 °C
CCC1(CC)C[C@@H](NC(=O)Nc2cccc3c2C[C@H](O)CC3)c2cccc(F)c2O1 [Example 52, N-[(4R)-2,2-diethyl-8-fluoro-3,4-dihydro-2H-chromen-4-yl]-N′-[(7R)-7-hydroxy-5,6,7,8-tetrahydronaphthalen-1-yl]urea] | 0.02 µM | 1.2 °C
CCC1(CC)C[C@@H](NC(=O)Nc2cccc3c2C[C@H](O)CC3)c2cc(F)ccc2O1 [Example 54, N-[(4R)-2,2-diethyl-6-fluoro-3,4-dihydro-2H-chromen-4-yl]-N′-[(7R)-7-hydroxy-5,6,7,8-tetrahydronaphthalen-1-yl]urea] | 0.038 µM | 1.0 °C
Cn1ncc2c(NC(=O)N[C@@H]3CCOc4c3cccc4C(F)(F)F)cccc21 [Example 59, N-(1-methyl-1H-indazol-4-yl)-N′-[(4R)-8-(trifluoromethyl)-3,4-dihydro-2H-chromen-4-yl]urea] | 0.016 µM | 0.5 °C
N-[(2R,4R)-2-(fluoromethyl)-2-methyl-7-(trifluoromethyl)-3,4-dihydro-2H-chromen-4-yl]-N-(3-methylisoquinolin-5-yl)urea [Example 127] | 0.025 µM | 
N-[(4R)-2,2-diethyl-8-fluoro-3,4-dihydro-2H-chromen-4-yl]-N-isoquinolin-8-ylurea [Example 83] | 0.021 µM | 
